Data from patent US9701655B2, “Functionalised benzopyran compounds and use thereof” (NOVOGEN LIMITED, priority 2014, dated 2017).
pIC50: −log10 of the molar value.

Experiments:
[1] = Pharmacokinetic testing, i.v. cassette dose; format: in vivo, Sprague-Dawley rats; conditions: rat, tail vein cassette dose, 1 mg/Kg each, 30% Captisol
Procedure: FIG. 10: PK profile of compounds 2, 6, 9 and 13 (which is labelled as 31) at 1 mg/kg delivered in 30% Captisol® formulation.
A study of the pharmacokinetic behavior of compounds 2, 6, 9, 13 was performed.
The study comprised Phase 1, a preformulation study ensuring all compounds were soluble in 30% Captisol® solution and formed a homogenous mixture suitable for i.v delivery. A number of LC-MS methods were developed and partially validated to ensure each analyte could be quantified from the plasma matrix and that there was no interference between any of the analytes. Phase 2 comprised the in-life study whereby Sprague-Dawley rats were acclimatised for three days prior to being injected in the tail vein with a cassette dose of four compounds, each at a final concentration of 1 mg/Kg. A total of three rats were used in the study with blood sampling with anticoagulant tubes at 5 mins, 30 mins, 1 hr, 2 hrs, 4 hrs, 6 hrs and 8 hrs. The third phase of the study was the bioanalysis of the analytes. The blood samples were centrifuged at 1200 rpm for 10 mins at 4° C. After the RBCs and the plasma were separated, the plasma was stored at −80 ° C. until processed and injected into the LC-MS. Samples from individual rats were treated as individual samples with the PK profile generated from the mean of the data from the three rats.

A549 = experiment: Proliferation of somatic cancer cells (cell-titre luminescence), A549; format: cell-based; conditions: Lung (NSCLC) A549, 72 hrs
Method in brief: (§1)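 24 hrs attachment (37° C., 5% CO2, ATCC media) → compound 30/3/0.3/0.03 μM, 72 hrs → cell-titre luminescence reagent 30 mins. Signal vs control; IC50 by linear regression on semi-log % control vs concentration.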

MDA-MB-231 = experiment: Proliferation of somatic cancer cells (cell-titre luminescence), MDA-MB-231; format: cell-based; conditions: Breast MDA-MB-231, 72 hrs
Method in brief: as §1

DU145 = experiment: Proliferation of somatic cancer cells (cell-titre luminescence), DU145; format: cell-based; conditions: Prostate DU145, 72 hrs
Method in brief: as §1

PC3 = experiment: Proliferation of somatic cancer cells (cell-titre luminescence), PC3; format: cell-based; conditions: Prostate PC3, 72 hrs
Method in brief: as §1

U87-MG = experiment: Proliferation of somatic cancer cells (cell-titre luminescence), U87-MG; format: cell-based; conditions: Homo sapiens, U-87 MG; Brain U87-MG, 72 hrs
Procedure: (§2) The ability of selected compounds to inhibit the proliferation of cancer cells representative of melanoma, non-small cell lung cancer, colorectal cancer, breast cancer (Estogen Receptor negative (ER−ve, TNBC−R−ve, Progesterone Receptor negative and negative for EGFR amplification), prostate cancer, liver cancer, ovarian cancer, pancreatic cancer and brain cancer was studied. A pre-determined number of cells as calculated from cell growth assays for each of the cell lines employed were seeded into their respective culture mediums (using ATCC culture parameters—http://wwvv.atcc.org) and cultured for 24 hrs at 37° C. and 5% CO2 in 96-well culture plates. Once attached, each cell line was then exposed to various concentrations of each respective analogue (30, 3, 0.3 and 0.03 μM), cultured for a further 72 hrs and exposed to cell-titre luminescent reagent (100μ/well) for a further 30 mins). Luminescence was captured using an EnVision multilabel reader and the data for each analogue concentration compared against control. Semi-log plots of Percent of Control versus concentration were prepared and IC50 determined using linear regression analysis. In Table 6, compounds Comp 1, Comp 2 and Comp 3 are comparative compounds having the following structures: […]

MiaPaCa-2 = experiment: Proliferation of somatic cancer cells (cell-titre luminescence), MiaPaCa-2; format: cell-based; conditions: Homo sapiens, MIA PaCa-2; Pancreatic MiaPaCa-2, 72 hrs
Procedure: as §2

A2780 = experiment: Proliferation of somatic cancer cells (cell-titre luminescence), A2780; format: cell-based; conditions: Homo sapiens; Ovarian A2780, 72 hrs
Procedure: as §2

GFP-labeled OCSC2 = experiment: Co-culture fluorescence microscopy, GFP-labeled OCSC2 stem cells; format: cell-based, human; conditions: 1 μg/ml for 48 hrs, recovery 72 hrs
Procedure: (§3) GFP-labeled OCSC2 and mCherry-labeled OCC2 cells were established by infecting cells with lentivirus expressing the fluorescent proteins (Craveiro et al. 2013). Co-cultures of GFP+ OCSC2 and mCherry+ OCC2 were treated with 1 μg/ml of compound 2 for 48 hrs and allowed to recover for another 72 hrs. Fluorescence was determined by fluorescence microscopy.

D54-sensitive = experiment: Cell viability (SRB or MTT), TMZ-sensitive D54 subclone; format: cell-based; conditions: 72 h, 72 hours post treatment
Procedure: (§4) The anti-proliferative activity of compound 2 was also assessed in matched TMZ susceptible (D54-S and U87-S) or resistant (D54-R and […]) cell lines (Hong Kong University, Dr Gilberto Leung). […] SRB tended to overestimate cytotoxicity compared to MTT.

U87-resistant = experiment: Cell viability (SRB or MTT), TMZ-resistant U87 subclone; format: cell-based; conditions: 72 h, 72 hours post treatment
Procedure: as §4

[2] = system: Ovarian cancer stem cell spheroids (OCSC-2); experiment: Ovarian cancer stem cell spheroid integrity (microscopy); format: cell-based, human; conditions: 24 hrs exposure
Procedure: FIG. 9: Compound 2 destroys ovarian cancer stem cell spheroids. OCSC-2 spheroids were established using standard methodology and exposed to increasing concentration of compound 2 over 24 hrs. A, Control; B. 0.1 μg/ml-24 hr; C, 1 μg/ml-24 hr Spheroid structure was assessed by microscopy.
Ovarian cancer stem cell spheroids were obtained from cultures grown under special conditions that selected for cells with self-renewing potential (Alvero et al., 2009). Briefly, CD44+ cells were incubated in a suspension system consisting of a glass tube in continuous rotation to prevent adherence These cells formed clusters in 48 hrs and compact spheroids in 4 days. Spheroids were then exposed to 0.1 and 1 μg/ml of compound 2 and examined microscopically after 24 hrs.

mCherry-labeled OCC2 = experiment: Co-culture fluorescence microscopy, mCherry-labeled OCC2 cells; format: cell-based, human; conditions: 1 μg/ml for 48 hrs, recovery 72 hrs
Procedure: as §3

OCSC-2 cells = experiment: OCSC-2 proliferation after removal of drug pressure (Incucyte confluence); format: cell-based, human; conditions: pre-treated 24 hrs with 0.1, 1 and 10 μg/ml, washed, additional 48 hrs in medium without drug
Procedure: Given the concept that residual cancer progenitor cells within the tumour post-treatment are responsible for tumour relapse, a critical therapeutic strategy to prolong survival is to eradicate those tumour progenitor cells driving relapse. In vitro studies were conducted to determine whether compound 2 was able to inhibit OCSC proliferation once drug pressure was removed. […] Culture plates were immediately placed in the Incucyte system and imaged every 2 hrs. Growth curves were calculated as a measure of cell confluence using an integrated confluence algorithm as a surrogate for cell number to determine proliferation rate.

Structure (SMILES)	plasma concentrations (PK behaviour) [1]	pIC50 (A549)	pIC50 (MDA-MB-231)	pIC50 (MDA-MB-231; Homo sapiens, MDA-MB-231, 72 h)	pIC50 (DU145)	pIC50 (PC3; Homo sapiens, PC-3, 72 h)	pIC50 (U87-MG)	pIC50 (MiaPaCa-2)	pIC50 (A2780)	also measured
COc1cc(C2COc3cc(O)ccc3C2c2ccc(O)c(F)c2)cc(OC)c1O (racemic) [Compound 6, 4-(3-Fluoro-4-hydroxyphenyl)-3-(4-hydroxy-3,5-dimethoxyphenyl)chroman-7-ol]	achieve plasma concentrations with the proposed pharmaceutic window of efficacy	6.15	5.77	> 5.70	6.10	> 6.00	6.32			pIC50 (A549; Homo sapiens, A549, 72 h): > 6.00; pIC50 (DU145; Homo sapiens, DU-145, 72 h): > 6.00; pIC50 (PC3): 6.30
COc1cc(C2COc3c(ccc(O)c3C)C2c2ccc(O)c(F)c2)cc(OC)c1O (racemic) [Compound 9, 4-(3-Fluoro-4-hydroxyphenyl)-3-(4-hydroxy-3,5-dimethoxyphenyl)-8-methylchroman-7-ol]	achieve plasma concentrations with the proposed pharmaceutic window of efficacy						7.30	7.22	7.05	
COc1cc(C2COc3c(ccc(O)c3C)C2c2ccc(O)cc2)cc(OC)c1O (racemic) [Compound 2, 3-(4-Hydroxy-3,5-dimethoxyphenyl)-4-(4-hydroxyphenyl)-8-methylchroman-7-ol]	achieve plasma concentrations with the proposed pharmaceutic window of efficacy	7.40	6.10	> 6.00	7.10	5.83	7.30	7.30	7.22	pIC50 (A549; listed as compound 2): > 6.00; GFP-labeled OCSC2 stem cell numbers (GFP-labeled OCSC2): markedly reduced; pIC50 (DU145; listed as compound 2): > 6.00; pIC50 (D54-sensitive; MTT): 6.57; pIC50 (D54-sensitive; SRB): 7.05; pIC50 (U87-resistant; MTT): 6.45; pIC50 (U87-resistant; SRB): 6.89; spheroid infrastructure ([2]; 0.1 μg/ml): had started to disintegrate; spheroid structure ([2]; 1 μg/ml): almost totally destroyed; effect on mCherry-labeled OCC2 cells (mCherry-labeled OCC2): round up and lift off the culture surface; growth after drug removal (OCSC-2 cells): failed to enter logarithmic growth
